Assay results taken from PubChem BioAssay AID1745844 (Carcinogenic Potency Database (CPDB), 2022).
Calls of active or inactive are those of the source. How the calls were made is not given here.

System: rodent lifetime carcinogenesis bioassay, tumor incidence TD50
Test: carcinogenic potency in animals, long-term in vivo studies, CPDB compilation (AID 1745844)

Compound CCOC(N)=O has a TD50 (hamster, strain Syrian Golden, females, in drinking water, site: adrenal gland, lesion: cortical carcinoma, dosed 90 weeks, study length 90 weeks) of 349 mg/kg/day, a TD50 (hamster, strain Syrian Golden, females, in drinking water, site: adrenal gland, lesion: several types, types named in the paper, dosed 90 weeks, study length 90 weeks) of 318 mg/kg/day and a TD50 (hamster, strain Syrian Golden, females, in drinking water, site: cecum, lesion: adenomatous polyp, dosed 90 weeks, study length 90 weeks) of 294 mg/kg/day. For the same compound, the TD50 (hamster, strain Syrian Golden, females, in drinking water, site: dermis, lesion: melanocytoma, dosed 90 weeks, study length 90 weeks) was 74.4 mg/kg/day, the TD50 (hamster, strain Syrian Golden, females, in drinking water, site: forestomach, lesion: carcinoma, dosed 90 weeks, study length 90 weeks) was 374 mg/kg/day and the TD50 (hamster, strain Syrian Golden, females, in drinking water, site: forestomach, lesion: papilloma, dosed 55 weeks, study length 55 weeks) was 102 mg/kg/day. The TD50 (hamster, strain Syrian Golden, females, in drinking water, site: forestomach, lesion: papilloma, dosed 90 weeks, study length 90 weeks) was 44.5 mg/kg/day, the TD50 (hamster, strain Syrian Golden, females, in drinking water, site: gall bladder, lesion: papilloma, dosed 90 weeks, study length 90 weeks) was 682 mg/kg/day and the TD50 (hamster, strain Syrian Golden, females, in drinking water, site: lung, lesion: adenoma, dosed 90 weeks, study length 90 weeks) was 1360 mg/kg/day. It also gave a TD50 (hamster, strain Syrian Golden, females, in drinking water, site: ovary, lesion: carcinoma, dosed 90 weeks, study length 90 weeks) of 682 mg/kg/day, a TD50 (hamster, strain Syrian Golden, females, in drinking water, site: skin, lesion: melanotic tumor, dosed 55 weeks, study length 55 weeks) of 496 mg/kg/day and a TD50 (hamster, strain Syrian Golden, females, in drinking water, site: thyroid gland, lesion: several types, types named in the paper, dosed 90 weeks, study length 90 weeks) of 538 mg/kg/day. It also gave a TD50 (hamster, strain Syrian Golden, females, in drinking water, site: vagina, lesion: carcinoma, dosed 90 weeks, study length 90 weeks) of 314 mg/kg/day, a TD50 (hamster, strain Syrian Golden, males, in drinking water, site: adrenal gland, lesion: cortical adenoma, dosed 103 weeks, study length 103 weeks) of 564 mg/kg/day and a TD50 (hamster, strain Syrian Golden, males, in drinking water, site: cecum, lesion: adenomatous polyp, dosed 103 weeks, study length 103 weeks) of 765 mg/kg/day. The TD50 (hamster, strain Syrian Golden, males, in drinking water, site: dermis, lesion: melanocytoma, dosed 103 weeks, study length 103 weeks) was 109 mg/kg/day, the TD50 (hamster, strain Syrian Golden, males, in drinking water, site: forestomach, lesion: carcinoma, dosed 103 weeks, study length 103 weeks) was 135 mg/kg/day and the TD50 (hamster, strain Syrian Golden, males, in drinking water, site: forestomach, lesion: papilloma, dosed 76 weeks, study length 76 weeks) was 95.8 mg/kg/day. The TD50 (hamster, strain Syrian Golden, males, in drinking water, site: forestomach, lesion: papilloma, dosed 103 weeks, study length 103 weeks) was 64.2 mg/kg/day, the TD50 (hamster, strain Syrian Golden, males, in drinking water, site: liver, lesion: several types, types named in the paper, dosed 103 weeks, study length 103 weeks) was 1280 mg/kg/day and the TD50 (hamster, strain Syrian Golden, males, in drinking water, site: lung, lesion: adenoma, dosed 103 weeks, study length 103 weeks) was 927 mg/kg/day. For the same compound, the TD50 (hamster, strain Syrian Golden, males, in drinking water, site: skin, lesion: melanotic tumor, dosed 76 weeks, study length 76 weeks) was 74.2 mg/kg/day, the TD50 (monkey, strain Cynomolgus [Macaca fascicularis], both sexes, in feed, site: any site (literature study), lesion: benign tumor, dosed 258 weeks, study length 1208 weeks) was 128 mg/kg/day and the TD50 (monkey, strain Cynomolgus [Macaca fascicularis], both sexes, in feed, site: any site (literature study), lesion: malignant tumor, dosed 258 weeks, study length 1208 weeks) was 21.5 mg/kg/day. It also gave a TD50 (monkey, strain Cynomolgus [Macaca fascicularis], both sexes, in feed, site: any site (literature study), lesion: several types, types named in the paper, dosed 258 weeks, study length 1208 weeks) of 25.5 mg/kg/day, a TD50 (monkey, strain Cynomolgus [Macaca fascicularis], both sexes, in feed, site: liver, lesion: hemangiosarcoma, dosed 258 weeks, study length 1208 weeks) of 95 mg/kg/day and a TD50 (monkey, strain Cynomolgus [Macaca fascicularis], both sexes, in feed, site: liver, lesion: hepatocellular adenoma, dosed 258 weeks, study length 1208 weeks) of 31.7 mg/kg/day. The TD50 (monkey, strain Cynomolgus [Macaca fascicularis], both sexes, in feed, site: lung, lesion: bronchogenic carcinoma, dosed 258 weeks, study length 1208 weeks) was 31.7 mg/kg/day, the TD50 (monkey, strain Cynomolgus [Macaca fascicularis], both sexes, in feed, site: pancreas, lesion: adenocarcinoma, dosed 258 weeks, study length 1208 weeks) was 52.8 mg/kg/day and the TD50 (monkey, strain Cynomolgus [Macaca fascicularis], both sexes, in feed, site: several sites, pooled by Berkeley, lesion: several types, pooled by Berkeley, dosed 258 weeks, study length 1208 weeks) was 16.4 mg/kg/day. For the same compound, the TD50 (monkey, strain Rhesus [Macaca mulatta], both sexes, in feed, site: adrenal gland, lesion: pheochromocytoma, dosed 258 weeks, study length 1281 weeks) was 117 mg/kg/day, the TD50 (monkey, strain Rhesus [Macaca mulatta], both sexes, in feed, site: any site (literature study), lesion: benign tumor, dosed 258 weeks, study length 1281 weeks) was 75.9 mg/kg/day and the TD50 (monkey, strain Rhesus [Macaca mulatta], both sexes, in feed, site: any site (literature study), lesion: malignant tumor, dosed 258 weeks, study length 1281 weeks) was 52.9 mg/kg/day. The TD50 (monkey, strain Rhesus [Macaca mulatta], both sexes, in feed, site: any site (literature study), lesion: several types, types named in the paper, dosed 258 weeks, study length 1281 weeks) was 26.3 mg/kg/day, the TD50 (monkey, strain Rhesus [Macaca mulatta], both sexes, in feed, site: cheek pouch, lesion: squamous-cell papilloma, dosed 258 weeks, study length 1281 weeks) was 75.5 mg/kg/day and the TD50 (monkey, strain Rhesus [Macaca mulatta], both sexes, in feed, site: jejunum, lesion: adenocarcinoma, dosed 258 weeks, study length 1281 weeks) was 65.2 mg/kg/day. The TD50 (monkey, strain Rhesus [Macaca mulatta], both sexes, in feed, site: liver, lesion: hemangiosarcoma, dosed 258 weeks, study length 1281 weeks) was 143 mg/kg/day, the TD50 (monkey, strain Rhesus [Macaca mulatta], both sexes, in feed, site: liver, lesion: hepatocellular carcinoma, dosed 258 weeks, study length 1281 weeks) was 143 mg/kg/day and the TD50 (monkey, strain Rhesus [Macaca mulatta], both sexes, in feed, site: several sites, pooled by Berkeley, lesion: several types, pooled by Berkeley, dosed 258 weeks, study length 1281 weeks) was 44.8 mg/kg/day. The TD50 (mouse, strain B6AKF1, females, oral dosing, site: Harderian gland, lesion: adenoma, dosed 73 weeks, study length 73 weeks) was 59.7 mg/kg/day, the TD50 (mouse, strain B6AKF1, females, oral dosing, site: all sites, lesion: angioma, dosed 73 weeks, study length 73 weeks) was 31.7 mg/kg/day and the TD50 (mouse, strain B6AKF1, females, oral dosing, site: any site (literature study), lesion: several types, types named in the paper, dosed 73 weeks, study length 73 weeks) was 9.73 mg/kg/day. The TD50 (mouse, strain B6AKF1, females, oral dosing, site: liver, lesion: hepatoma, dosed 73 weeks, study length 73 weeks) was 89.9 mg/kg/day, the TD50 (mouse, strain B6AKF1, females, oral dosing, site: lung, lesion: adenoma, dosed 73 weeks, study length 73 weeks) was 29.3 mg/kg/day and the TD50 (mouse, strain B6AKF1, females, oral dosing, site: lung, lesion: carcinoma, dosed 73 weeks, study length 73 weeks) was 89.9 mg/kg/day. It also gave a TD50 (mouse, strain B6AKF1, females, oral dosing, site: lung, lesion: several types, types named in the paper, dosed 73 weeks, study length 73 weeks) of 12.5 mg/kg/day, a TD50 (mouse, strain B6AKF1, males, oral dosing, site: Harderian gland, lesion: adenoma, dosed 72 weeks, study length 72 weeks) of 35.8 mg/kg/day and a TD50 (mouse, strain B6AKF1, males, oral dosing, site: all sites, lesion: reticulum-cell sarcoma, dosed 72 weeks, study length 72 weeks) of 77.9 mg/kg/day. For the same compound, the TD50 (mouse, strain B6AKF1, males, oral dosing, site: any site (literature study), lesion: several types, types named in the paper, dosed 72 weeks, study length 72 weeks) was 11.2 mg/kg/day, the TD50 (mouse, strain B6AKF1, males, oral dosing, site: liver, lesion: hepatoma, dosed 72 weeks, study length 72 weeks) was 39 mg/kg/day and the TD50 (mouse, strain B6AKF1, males, oral dosing, site: liver, lesion: several types, types named in the paper, dosed 72 weeks, study length 72 weeks) was 26 mg/kg/day. It also gave a TD50 (mouse, strain B6AKF1, males, oral dosing, site: lung, lesion: adenoma, dosed 72 weeks, study length 72 weeks) of 27.8 mg/kg/day, a TD50 (mouse, strain B6AKF1, males, oral dosing, site: lung, lesion: several types, types named in the paper, dosed 72 weeks, study length 72 weeks) of 24.2 mg/kg/day and a TD50 (mouse, strain B6C3F1, females, oral dosing, site: any site (literature study), lesion: several types, types named in the paper, dosed 68 weeks, study length 68 weeks) of 13.7 mg/kg/day. For the same compound, the TD50 (mouse, strain B6C3F1, females, oral dosing, site: liver, lesion: hepatoma, dosed 68 weeks, study length 68 weeks) was 55.9 mg/kg/day, the TD50 (mouse, strain B6C3F1, females, oral dosing, site: liver, lesion: several types, types named in the paper, dosed 68 weeks, study length 68 weeks) was 32.4 mg/kg/day and the TD50 (mouse, strain B6C3F1, females, oral dosing, site: lung, lesion: adenoma, dosed 68 weeks, study length 68 weeks) was 97.4 mg/kg/day. For the same compound, the TD50 (mouse, strain B6C3F1, females, oral dosing, site: lung, lesion: several types, types named in the paper, dosed 68 weeks, study length 68 weeks) was 79 mg/kg/day, the TD50 (mouse, strain B6C3F1, males, in drinking water, site: heart, lesion: hemangiosarcoma, dosed 65 weeks, study length 70 weeks) was 417 mg/kg/day and the TD50 (mouse, strain B6C3F1, males, in drinking water, site: liver, lesion: hemangioma, dosed 65 weeks, study length 70 weeks) was 63.3 mg/kg/day. It also gave a TD50 (mouse, strain B6C3F1, males, in drinking water, site: liver, lesion: hemangiosarcoma, dosed 65 weeks, study length 70 weeks) of 122 mg/kg/day, a TD50 (mouse, strain B6C3F1, males, in drinking water, site: liver, lesion: hepatocellular adenoma, dosed 65 weeks, study length 70 weeks) of 38.2 mg/kg/day and a TD50 (mouse, strain B6C3F1, males, in drinking water, site: lung, lesion: alveolar/bronchiolar adenoma, dosed 65 weeks, study length 70 weeks) of 5.91 mg/kg/day. For the same compound, the TD50 (mouse, strain B6C3F1, males, in drinking water, site: lung, lesion: alveolar/bronchiolar carcinoma, dosed 65 weeks, study length 70 weeks) was 242 mg/kg/day, the TD50 (mouse, strain B6C3F1, males, in drinking water, site: lung, lesion: several types, types named in the paper, dosed 65 weeks, study length 70 weeks) was 5.91 mg/kg/day and the TD50 (mouse, strain B6C3F1, males, oral dosing, site: any site (literature study), lesion: several types, types named in the paper, dosed 70 weeks, study length 70 weeks) was 22.4 mg/kg/day. The TD50 (mouse, strain B6C3F1, males, oral dosing, site: liver, lesion: hepatoma, dosed 70 weeks, study length 70 weeks) was 81.7 mg/kg/day, the TD50 (mouse, strain B6C3F1, males, oral dosing, site: liver, lesion: several types, types named in the paper, dosed 70 weeks, study length 70 weeks) was 46 mg/kg/day and the TD50 (mouse, strain B6C3F1, males, oral dosing, site: lung, lesion: adenoma, dosed 70 weeks, study length 70 weeks) was 81.7 mg/kg/day. For the same compound, the TD50 (mouse, strain B6C3F1, males, oral dosing, site: lung, lesion: several types, types named in the paper, dosed 70 weeks, study length 70 weeks) was 65.9 mg/kg/day, the TD50 (mouse, strain CF-1, females, in drinking water, site: any site (literature study), lesion: several types, types named in the paper, dosed 133 weeks, study length 133 weeks) was 23.3 mg/kg/day and the carcinogen call (mouse, strain CF-1, females, in drinking water, site: liver, lesion: hepatoma, dosed 133 weeks, study length 133 weeks) was “negative (inactive)”. The TD50 (mouse, strain CF-1, females, in drinking water, site: lung, lesion: one or several types, types not named, dosed 133 weeks, study length 133 weeks) was 23.8 mg/kg/day, the TD50 (mouse, strain CF-1, males, in drinking water, site: any site (literature study), lesion: several types, types named in the paper, dosed 125 weeks, study length 125 weeks) was 12.1 mg/kg/day and the carcinogen call (mouse, strain CF-1, males, in drinking water, site: liver, lesion: hepatoma, dosed 125 weeks, study length 125 weeks) was “negative (inactive)”. The TD50 (mouse, strain CF-1, males, in drinking water, site: lung, lesion: one or several types, types not named, dosed 125 weeks, study length 125 weeks) was 13.2 mg/kg/day, the TD50 (mouse, strain NMRI, both sexes, in drinking water, site: any site (literature study), lesion: benign tumor, dosed 101 weeks, study length 104 weeks) was 0.434 mg/kg/day and the TD50 (mouse, strain NMRI, both sexes, in drinking water, site: any site (literature study), lesion: malignant tumor, dosed 101 weeks, study length 104 weeks) was 14.7 mg/kg/day. It also gave a TD50 (mouse, strain Swiss, both sexes, in feed, site: lung, lesion: adenocarcinoma, dosed 116 weeks, study length 116 weeks) of 5060 mg/kg/day, a TD50 (mouse, strain Swiss, both sexes, in feed, site: lung, lesion: adenoma, dosed 116 weeks, study length 116 weeks) of 36.1 mg/kg/day and a TD50 (rat, strain Sprague-Dawley, both sexes, in drinking water, site: any site (literature study), lesion: benign tumor, dosed 97 weeks, study length 104 weeks) of 91.2 mg/kg/day. For the same compound, the TD50 (rat, strain Sprague-Dawley, both sexes, in drinking water, site: any site (literature study), lesion: malignant tumor, dosed 97 weeks, study length 104 weeks) was 41.3 mg/kg/day.
